From patent publication US10077261B2, “Imidazolin-5-one derivative useful as FASN inhibitors for the treatment of cancer” (Janssen Pharmaceutica NV, priority 2012, dated 2018)

Target: T1, hFASN enzyme (full length) (Homo sapiens, UniProt P49327)
T1 construct: 10 μL hFASN enzyme (full length, 300 ng, purified in house); made in house
Assay: Fatty Acid Synthase (FASN) inhibition scintillation proximity assay
Type: biochemical
Settings: for inhibition at 10 µM: read-out: Human FASN % inhibition @ 10 μM, 10 μM test compound; for IC50: read-out: Human FASN pIC50 (converted); for Human FASN pIC50: hFASN enzyme, full length, "~" means standard error of the pIC50 is larger than 0.5
Summary of the method: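 Full-length in-house purified enzyme (300 ng) was tested in 100 mM KH2PO4 pH 7.5, 1 mM DTT with ³H-acetyl-CoA and malonyl-CoA as substrates; compounds ranged 0.01–30 μM. Reactions were stopped with streptavidin imaging beads, read by LEADseeker at 610 nm, and fitted to a 4-parameter logistic curve.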

T1 sequence (P49327 whole entry): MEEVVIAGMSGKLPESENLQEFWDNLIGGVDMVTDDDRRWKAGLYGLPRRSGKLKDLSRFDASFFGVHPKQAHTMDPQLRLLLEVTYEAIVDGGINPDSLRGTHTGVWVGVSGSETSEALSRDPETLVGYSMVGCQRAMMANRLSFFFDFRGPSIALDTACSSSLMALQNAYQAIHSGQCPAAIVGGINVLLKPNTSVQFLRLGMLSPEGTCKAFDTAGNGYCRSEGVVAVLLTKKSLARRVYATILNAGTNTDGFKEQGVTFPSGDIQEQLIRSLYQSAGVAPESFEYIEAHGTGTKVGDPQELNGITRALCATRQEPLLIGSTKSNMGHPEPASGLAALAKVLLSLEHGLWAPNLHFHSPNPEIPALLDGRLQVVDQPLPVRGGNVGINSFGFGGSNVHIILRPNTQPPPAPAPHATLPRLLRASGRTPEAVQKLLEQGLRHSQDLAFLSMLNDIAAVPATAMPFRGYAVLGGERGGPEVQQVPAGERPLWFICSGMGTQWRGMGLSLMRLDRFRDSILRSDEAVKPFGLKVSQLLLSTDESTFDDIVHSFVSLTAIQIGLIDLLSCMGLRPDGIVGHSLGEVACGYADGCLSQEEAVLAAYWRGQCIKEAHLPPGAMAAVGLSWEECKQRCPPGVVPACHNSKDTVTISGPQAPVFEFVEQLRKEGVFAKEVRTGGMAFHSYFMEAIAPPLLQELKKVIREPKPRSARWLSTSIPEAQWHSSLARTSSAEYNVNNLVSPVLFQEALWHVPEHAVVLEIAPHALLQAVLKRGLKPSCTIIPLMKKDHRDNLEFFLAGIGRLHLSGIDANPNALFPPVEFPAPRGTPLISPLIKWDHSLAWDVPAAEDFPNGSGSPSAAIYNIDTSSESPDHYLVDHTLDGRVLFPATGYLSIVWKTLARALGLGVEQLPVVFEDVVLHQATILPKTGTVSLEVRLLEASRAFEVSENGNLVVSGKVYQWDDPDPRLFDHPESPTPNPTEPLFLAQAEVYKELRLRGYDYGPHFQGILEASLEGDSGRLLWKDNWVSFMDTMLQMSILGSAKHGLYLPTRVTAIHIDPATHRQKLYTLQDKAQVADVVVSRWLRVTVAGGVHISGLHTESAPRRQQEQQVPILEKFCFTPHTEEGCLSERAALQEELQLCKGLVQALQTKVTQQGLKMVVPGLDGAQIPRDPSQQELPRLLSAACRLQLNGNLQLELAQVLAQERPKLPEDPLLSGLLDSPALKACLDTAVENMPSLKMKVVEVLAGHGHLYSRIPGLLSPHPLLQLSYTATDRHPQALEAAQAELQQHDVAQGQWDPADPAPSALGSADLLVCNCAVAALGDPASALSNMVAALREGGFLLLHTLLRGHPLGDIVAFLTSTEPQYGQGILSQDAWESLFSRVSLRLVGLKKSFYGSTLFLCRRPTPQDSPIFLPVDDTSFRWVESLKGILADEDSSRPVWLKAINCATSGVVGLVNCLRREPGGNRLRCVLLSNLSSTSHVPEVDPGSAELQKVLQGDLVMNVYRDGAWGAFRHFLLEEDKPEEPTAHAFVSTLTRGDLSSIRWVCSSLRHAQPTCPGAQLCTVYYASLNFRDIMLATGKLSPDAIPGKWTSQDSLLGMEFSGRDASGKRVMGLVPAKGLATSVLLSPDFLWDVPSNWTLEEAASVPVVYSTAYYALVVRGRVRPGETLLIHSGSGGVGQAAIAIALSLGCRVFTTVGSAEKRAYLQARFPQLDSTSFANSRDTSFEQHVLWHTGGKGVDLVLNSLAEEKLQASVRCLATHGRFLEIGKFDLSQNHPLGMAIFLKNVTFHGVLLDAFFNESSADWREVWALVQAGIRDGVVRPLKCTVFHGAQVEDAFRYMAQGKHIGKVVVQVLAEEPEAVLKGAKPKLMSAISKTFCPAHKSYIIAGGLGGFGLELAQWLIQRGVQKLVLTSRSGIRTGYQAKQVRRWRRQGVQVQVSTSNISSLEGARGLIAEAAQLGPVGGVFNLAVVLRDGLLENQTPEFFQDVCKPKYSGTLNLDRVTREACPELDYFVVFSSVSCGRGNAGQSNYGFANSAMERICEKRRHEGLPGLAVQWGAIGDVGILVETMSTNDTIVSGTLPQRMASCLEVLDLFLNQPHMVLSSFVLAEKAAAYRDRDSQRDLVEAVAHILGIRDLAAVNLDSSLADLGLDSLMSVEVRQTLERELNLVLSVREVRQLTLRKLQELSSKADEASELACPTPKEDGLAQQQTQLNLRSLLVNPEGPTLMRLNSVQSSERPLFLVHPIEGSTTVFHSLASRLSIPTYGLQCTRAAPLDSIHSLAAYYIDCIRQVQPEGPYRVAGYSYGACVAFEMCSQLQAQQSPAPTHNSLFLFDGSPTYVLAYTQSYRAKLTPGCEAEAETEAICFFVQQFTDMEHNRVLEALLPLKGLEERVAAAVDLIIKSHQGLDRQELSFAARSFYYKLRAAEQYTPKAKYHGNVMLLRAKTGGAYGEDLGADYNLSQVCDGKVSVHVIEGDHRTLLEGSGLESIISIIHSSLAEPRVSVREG

SMILES | inhibition at 10 µM | IC50 | Human FASN pIC50 | Human FASN % inhibition @ 10 μM (10 μM test compound, 10 µM)
O=C(N1CCCC1)N1CC[C@@H](CN2C(=O)C3(CCOC3)N=C2c2ccc(-c3ccc4occc4c3)cc2)C1 (stereo partly drawn) [compound 689, 2-[4-(1-Benzofuran-5-yl)phenyl]-3-{[(3S)-1-(pyrrolidin-1-ylcarbonyl)pyrrolidin-3-yl]methyl}-7-oxa-1,3-diazaspiro[4.4]non-1-en-4-one] | 61% | 4.07 µM |  | 
Cn1ncc2cc(-c3ccc(C4=NC5(CCOC5)C(=O)N4CC4CN(C(=O)N5CCCC5)C4)cc3)ccc21 (stereo not shown) [compound 945, 2-(4-(1-methyl-1H-indazol-5-yl)phenyl)-3-((1-(pyrrolidine-1-carbonyl)azetidin-3-yl)methyl)-7-oxa-1,3-diazaspiro[4.4]non-1-en-4-one] | 38% | > 10 µM |  | 
Cn1ccc2cc(-c3ccc(C4=NC5(CC5)C(=O)N4CC4CN(C(=O)C5CC5)C4)c(F)c3)ccc21 [compound 870, 6-((1-(cyclopropanecarbonyl)azetidin-3-yl)methyl)-5-(2-fluoro-4-(1-methy7l-1H-indol-5-yl)phenyl)-4,6-diazaspiro[2.4]hept-4-en-7-one] |  | 0.0269 µM |  | 
O=C(C1CC1)N1CCC[C@@H](CN2C(=O)C3(CC3)N=C2c2ccc(-c3ccc4[nH]ncc4c3)cc2)C1 [compound 389, 6-{[(3R)-1-(Cyclopropylcarbonyl)piperidin-3-yl]methyl}-5-[4-(1H-indazol-5-yl)phenyl]-4,6-diazaspiro[2.4]hept-4-en-7-one] | 56% | 7.24 µM |  | 
Cc1ccc(-c2ccc(C3=NC4(CC4)C(=O)N3CC3CCN(C(=O)C4CC4)CC3)cc2)cc1 [compound 97, 6-{[1-(Cyclopropylcarbonyl)piperidin-4-yl]methyl}-5-(4′-methylbiphenyl-4-yl)-4,6-diazaspiro[2.4]hept-4-en-7-one] | 58.7% | 5.62 µM |  | 
CC(C)N1CCC2(CC1)N=C(c1ccc(-c3ccc4c(cnn4C)c3)cc1)N(CC1CN(C(=O)C3CC3)C1)C2=O [compound 169, 3-{[1-(Cyclopropylcarbonyl)azetidin-3-yl]methyl}-8-(1-methylethyl)-2-[4-(1-methyl-1H-indazol-5-yl)phenyl]-1,3,8-triazaspiro[4.5]dec-1-en-4-one] | 45.7% | > 10 µM |  | 
Cn1cc(-c2ccc(C3=NC4(CC4)C(=O)N3CC3CN(C(=O)C4CC4)C3)cc2)cn1 [compound 42, 6-{[1-(Cyclopropylcarbonyl)azetidin-3-yl]methyl}-5-[4-(1-methyl-1H-pyrazol-4-yl)phenyl]-4,6-diazaspiro[2.4]hept-4-en-7-one] | 23.5% | > 10 µM |  | 
Cc1cc2cc(-c3ccc(C4=NC5(CC5)C(=O)N4CC4CN(C(=O)C5CC5)C4)cc3F)ccc2o1 [compound 416, 6-{[1-(Cyclopropylcarbonyl)azetidin-3-yl]methyl}-5-[3-fluoro-4-(2-methyl-1-benzofuran-5-yl)phenyl]-4,6-diazaspiro[2.4]hept-4-en-7-one] | 76% | ~1.78 µM |  | 
Cn1ncc2cc(-c3ncc(C4=NC5(CC5)C(=O)N4C[C@@H]4CCN(C(=O)C5CC5)C4)cn3)ccc21 [compound 459, 6-{[(3R)-1-(Cyclopropylcarbonyl)pyrrolidin-3-yl]methyl}-5-[2-(1-methyl-1H-indazol-5-yl)pyrimidin-5-yl]-4,6-diazaspiro[2.4]hept-4-en-7-one] | 43% |  | 5.06 | 
Cc1cc(-c2cnc3c(c2)OCCN3C)ccc1C1=NC2(CCCC2)C(=O)N1C[C@@H]1CCN(C(=O)C2CC2)C1 [compound 822, (R)-3-((1-(cyclopropanecarbonyl)pyrrolidin-3-yl)methyl)-2-(2-methyl-4-(4-methyl-3,4-dihydro-2H-pyrido[3,2-b][1,4]oxazin-7-yl)phenyl)-1,3-diazaspiro[4.4]non-1-en-4-one] | 25% | > 10 µM |  | 
CC(C)N1CCC2(CC1)N=C(c1ccc(-c3ccc(-c4cnn(C)c4)cc3)cc1)N(CC1CN(C(=O)C3CC3)C1)C2=O [compound 771, 3-{[1-(Cyclopropylcarbonyl)azetidin-3-yl]methyl}-8-(1-methylethyl)-2-[4′-(1-methyl-1H-pyrazol-4-yl)biphenyl-4-yl]-1,3,8-triazaspiro[4.5]dec-1-en-4-one] | 44% | 7.59 µM |  | 
Cn1cc(-c2ccc(-c3ccc(C4=NC5(CCOCC5)C(=O)N4CC4CN(S(C)(=O)=O)C4)cc3)cc2)cn1 [compound 921, 2-(4′-(1-methyl-1H-pyrazol-4-yl)-[1,1′-biphenyl]-4-yl)-3-((1-(methylsulfonyl)azetidin-3-yl)methyl)-8-oxa-1,3-diazaspiro[4.5]dec-1-en-4-one] | -7% | > 10 µM |  | 
Cn1ncc2cc(-c3ccc(C4=NC5(CCNCC5)C(=O)N4CC4CN(C(=O)C5CC5)C4)cc3)ccc21 [compound 131, 3-{[1-(Cyclopropylcarbonyl)azetidin-3-yl]methyl}-2-[4-(1-methyl-1H-indazol-5-yl)phenyl]-1,3,8-triazaspiro[4.5]dec-1-en-4-one] | 52.1% | 8.91 µM |  | 
CC(O)C(=O)N1CC[C@@H](CN2C(=O)C3(CCOCC3)N=C2c2ccc(-c3ccc4c(cnn4C)c3)cc2)C1 (stereo partly drawn) [compound 673, 3-{[(3R)-1-(2-Hycdroxypropanoyl)pyrrolidin-3-yl]methyl}-2-[4-(1-methyl-1H-indazol-5-yl)phenyl]-8-oxa-1,3-diazaspiro[4.5]dec-1-en-4-one] | 61% | 5.5 µM |  | 
Cn1cc(-c2ccc(-c3ccc(C4=NC5(CCOCC5)C(=O)N4CC4CN(C(=O)[C@H]5CCCO5)C4)cc3)cc2)cn1 [compound 696, 2-[4′-(1-Mehtyl-1H-pyrazol-4-yl)biphenyl-4-yl]-3-({1-[(2R)-tetrahydro-furan-2-ylcarbonyl]azetidin-3-yl}methyl)-8-oxa-1,3-diazaspiro[4.5]dec-1-en-4-one] | 72% | 1.7 µM |  | 
Cn1ncc2cc(-c3ccc(C4=NC5(CCOC5)C(=O)N4C[C@@H]4CCN(C(=O)C(F)(F)F)C4)cc3)ccc21 (stereo partly drawn) [compound 955, 2-(4-(1-methyl-1H-indazol-5-yl)phenyl)-3-(((R)-1-(2,2,2-trifluoroacetyl)pyrrolidin-3-yl)methyl)-7-oxa-1,3-diazaspiro[4.4]non-1-en-4-one] | 34% | > 10 µM |  | 
CC(O)C(=O)N1CC[C@@H](CN2C(=O)C3(CCOCC3)N=C2c2ccc(-c3ccc(-c4cnn(C)c4)cc3)cc2)C1 (stereo partly drawn) [compound 656, 3-{[(3R)-1-(2-Hydroxypropanoyl)pyrrolidin-3-yl]methyl}-2-[4′-(1-methyl-1H-pyrazol-4-yl)biphenyl-4-yl]-8-oxa-1,3-diazaspiro[4.5]dec-1-en-4-one] | 74% | 2 µM |  | 
O=C(C1CC1)N1CCC(CN2C(=O)C3(CC3)N=C2c2ccc(-c3ccc(C(F)(F)F)cc3)cc2)CC1 [compound 859, 6-((1-(cyclopropanecarbonyl)piperidin-4-yl)methyl)-5-(4′-(trifluoromethyl)-[1,1′-biphenyl]-4-yl)-4,6-diazaspiro[2.4]hept-4-en-7-one] |  |  | <5 | 11%
CC(C)N1CCC2(CC1)N=C(c1ccc(-c3ccc4cnccc4c3)cc1)N(CC1CN(C(=O)C3CC3)C1)C2=O [compound 951, 3-((1-(cyclopropanecarbonyl)azetidin-3-yl)methyl)-8-isopropyl-2-(4-(isoquinolin-6-yl)phenyl)-1,3,8-triazaspiro[4.5]dec-1-en-4-one] | 41% | > 10 µM |  | 
COC(=O)N1CC2(C1)N=C(c1ccc(-c3ccc4occc4c3)cc1)N(C[C@@H]1CCN(S(C)(=O)=O)C1)C2=O [compound 956, (S)-methyl 6-(4-(benzofuran-5-yl)phenyl)-7-((1-(methylsulfonyl)pyrrolidin-3-yl)methyl)-8-oxo-2,5,7-triazaspiro[3.4]oct-5-ene-2-carboxylate] | 8% | > 10 µM |  | 
COC(=O)N1CC(CN2C(=O)C3(CCOC3)N=C2c2ccc(-c3ccc4c(cnn4C)c3)cc2)C1 (stereo not shown) [compound 905, methyl 3-((2-(4-(1-methyl-1H-indazol-5-yl)phenyl)-4-oxo-7-oxa-1,3-diazaspiro[4.4]non-1-en-3-yl)methyl)azetidine-1-carboxylate] | -7% | > 10 µM |  | 
Cc1cc2cc(-c3ccc(C4=NC5(CCN(C(=O)C6CC6)CC5)C(=O)N4C[C@@H]4CCN(C(=O)C5CC5)C4)cc3)ccc2o1 [compound 171, 8-(Cyclopropylcarbonyl)-3-{[(3R)-1-(cyclopropylcarbonyl)pyrrolidin-3-yl]methyl}-2-[4-(2-methyl-1-benzofuran-5-yl)phenyl]-1,3,8-triazaspiro[4.5]dec-1-en-4-one] | 107% | 0.214 µM |  | 
CC(=O)N1CCC2(CC1)N=C(c1ccc(-c3ccc4sc(C)c(C)c4c3)cc1)N(C[C@@H]1CCN(C(=O)C3CC3)C1)C2=O [compound 181, 8-Acetyl-3-{[(3R)-1-(cyclopropylcarbonyl)pyrrolidin-3-yl]methyl}-2-[4-(2,3-dimethyl-1-benzothiophen-5-yl)phenyl]-1,3,8-triazaspiro[4.5]dec-1-en-4-one] | 109% | 0.123 µM |  | 
O=C(c1nccs1)N1CC(CN2C(=O)C3(CCOC3)N=C2c2ccc(-c3ccc4occc4c3)cc2)C1 (stereo not shown) [compound 932, 2-(4-(benzofuran-5-yl)phenyl)-3-((1-(thiazole-2-carbonyl)azetidin-3-yl)methyl)-7-oxa-1,3-diazaspiro[4.4]non-1-en-4-one] | 2% | > 10 µM |  | 
COC(=O)N1CC[C@@H](CN2C(=O)C3(CCOCC3)N=C2c2ccc(-c3ccc4c(cnn4C)c3)cc2)C1 [compound 953, (S)-methyl 3-((2-(4-(1-methyl-1H-indazol-5-yl)phenyl)-4-oxo-8-oxa-1,3-diazaspiro[4.5]dec-1-en-3-yl)methyl)pyrrolidine-1-carboxylate] | 35% | > 10 µM |  | 
